Results reported in patent publication US20040002545A1, “Thiazole derivatives of 2-methoxyimino-2-(pyridinyloxymethyl)-phenyl-acetamides useful as fungicides” (priority 2003, published 2004).

What was measured:
Format in all cases: in vivo
Septoria tritici—SEPTTR = assay: Wheat leaf blotch greenhouse test, curative and protectant; design: scale not given here; conditions: for SEPTTR 3DC: 3DC (curative); for SEPTTR 7DP: 7DP (protectant)
Text: (§1) Pathogen propagation and host inoculation. Plants were inoculated with various pathogens 1-4 days before compound application (curative tests) and 1-7 days after compound application (protectant tests). For all wheat trials, compounds were applied at growth stage 1.2, when the second leaf was expanded to about ½ of its final size (12 days after seeds were first watered). Information on the growth stages of other plant species at the time compound application and on the propagation and inoculation procedures associated with each pathogen is given below.
SEPTTR: Fresh inoculum is prepared in a manner similar to that described for LEPTNO. In this case, a brownish layer of spores covers the entire surface of the PDA plate and only a few plates are needed to obtain a large number of spores. After incubation overnight in the 20° C. dew chamber, inoculated plants were continually misted for 3 days in a 20° C. greenhouse, then grown at 20° C. without mist until disease symptoms had fully developed (usually about 10 days).
(§2) LEPTNO: Fresh inoculum was prepared by streaking PDA plates with spore exudates from an older plate using a sterile spatula. The plates were incubated at 18° C. under black lights and typically produced large quantities of spores in pink exudate in 6-7 days. A small amount of tap water was poured onto several plates and spores were collected by scraping the exudates off the PDA surface into the water. The spore solutions were combined in a large beaker, diluted with 200-300 ml of water and filtered through a 180 u mesh screen. The spore concentration was determined using a hemacytometer and water was added to obtain a final concentration of 10^7 spores/ml. Approximately 3 large drops of Tween 20 were added for each 100 ml of volume and the spore solution was sprayed to run-off on wheat seedlings. Inoculated plants were placed in a 20° C. dew chamber overnight, then moved to a 20° C. greenhouse where they were continually misted (12 seconds of mist every minute) until disease symptoms were fully developed (8-10 days).

Erysiphe graminis—ERYSGT = assay: Wheat powdery mildew greenhouse test, curative and protectant; design: scale not given here; conditions: for ERYSGT 3DC: 3DC (curative); for ERYSGT 7DP: 7DP (protectant)
Text: as §1
ERYSGT: Wheat seedlings were infected with fresh spores from the obligate pathogen ERYSGT by shaking heavily infected wheat plants over them. Plants that had been dusted with ERYSGT spores were incubated in the greenhouse at 22° C. until disease symptoms had fully developed (usually 7 days).

Septoria nodorum—LEPTNO = assay: Wheat glume blotch greenhouse test, curative and protectant; design: scale not given here; conditions: for LEPTNO 3DC: 3DC (curative); for LEPTNO 7DP: 7DP (protectant)
Text: as §1, §2

[1] = test system: Puccinia recondita—PUCCRT; assay: Wheat brown rust greenhouse test, curative and protectant; conditions: for PUCCRT 3DC: 3DC (curative); for PUCCRT 7DP: 7DP (protectant)
Text: as §1
PUCCRT: Spores of the obligate pathogen PUCCRT were collected from infected plants with a vacuum apparatus and stored at 4° C. Approximately 0.1 g of fresh spores (stored at 4° C. for less than 30 days) was mixed with several drops of Tween 20. The thick spore paste was diluted to 100 ml with water and sprayed to run-off on wheat seed seedlings. Plants inoculated with PUCCRT were kept in a 20° C. dew chamber overnight and then transferred to a 20° C. growth chamber where symptoms developed in 8-9 days.

Molecule | SEPTTR 3DC (Septoria tritici—SEPTTR; rate 15.5 g ai/ha) | SEPTTR 7DP (Septoria tritici—SEPTTR; rate 15.5 g ai/ha) | SEPTTR 3DC (Septoria tritici—SEPTTR; rate 31.3 g ai/ha) | SEPTTR 7DP (Septoria tritici—SEPTTR; rate 31.3 g ai/ha) | SEPTTR 3DC (Septoria tritici—SEPTTR; rate 62.5 g ai/ha) | SEPTTR 7DP (Septoria tritici—SEPTTR; rate 62.5 g ai/ha) | SEPTTR 3DC (Septoria tritici—SEPTTR; rate 125 g ai/ha) | SEPTTR 7DP (Septoria tritici—SEPTTR; rate 125 g ai/ha) | LEPTNO 3DC (Septoria nodorum—LEPTNO; rate 15.5 g ai/ha) | LEPTNO 7DP (Septoria nodorum—LEPTNO; rate 15.5 g ai/ha) | LEPTNO 3DC (Septoria nodorum—LEPTNO; rate 31.3 g ai/ha) | LEPTNO 7DP (Septoria nodorum—LEPTNO; rate 31.3 g ai/ha) | LEPTNO 3DC (Septoria nodorum—LEPTNO; rate 62.5 g ai/ha) | LEPTNO 7DP (Septoria nodorum—LEPTNO; rate 62.5 g ai/ha) | LEPTNO 3DC (Septoria nodorum—LEPTNO; rate 125 g ai/ha) | LEPTNO 7DP (Septoria nodorum—LEPTNO; rate 125 g ai/ha) | PUCCRT 3DC ([1]; rate 15.5 g ai/ha) | PUCCRT 7DP ([1]; rate 15.5 g ai/ha) | PUCCRT 3DC ([1]; rate 31.3 g ai/ha) | PUCCRT 7DP ([1]; rate 31.3 g ai/ha) | further results
2-[[[3-chloro-5-[5-[3-methylisothiazoly]]-2-pyridinyl]-oxy]methyl]-alpha-(methoxyimino)-N-methylbenzeneacetamide [Compound 1] | 22 | 53 | 59 | 88 | 85 | 76 | 99 | 91 | 58 | 46 | 60 | 50 | 53 | 95 | 71 | 98 | 93 | 80 | 99 | 94 | ERYSGT 3DC (Erysiphe graminis—ERYSGT; rate 15.5 g ai/ha): 88; ERYSGT 7DP (Erysiphe graminis—ERYSGT; rate 15.5 g ai/ha): 51; ERYSGT 3DC (Erysiphe graminis—ERYSGT; rate 31.3 g ai/ha): 92; ERYSGT 7DP (Erysiphe graminis—ERYSGT; rate 31.3 g ai/ha): 45; ERYSGT 3DC (Erysiphe graminis—ERYSGT; rate 62.5 g ai/ha): 94; ERYSGT 7DP (Erysiphe graminis—ERYSGT; rate 62.5 g ai/ha): 88; ERYSGT 3DC (Erysiphe graminis—ERYSGT; rate 125 g ai/ha): 97; ERYSGT 7DP (Erysiphe graminis—ERYSGT; rate 125 g ai/ha): 100; PUCCRT 3DC ([1]; rate 62.5 g ai/ha): 100; PUCCRT 7DP ([1]; rate 62.5 g ai/ha): 100; PUCCRT 3DC ([1]; rate 125 g ai/ha): 100; PUCCRT 7DP ([1]; rate 125 g ai/ha): 100
CNC(=O)C(=NOC)c1ccccc1COc1ncc(-c2snc(C)c2Br)cc1C [Compound 2, 2-[[[3-methyl-5-[5-[4-bromo-3-methylisothiazolyl]]-2-pyridinyl]-oxy]methyl]-alpha-(methoxyimino)-N-methylbenzeneacetamide] | 97 | 85 | 83 | 85 | 90 | 96 | 95 | 97 | 65 | 65 | 73 | 79 | 47 | 84 | 67 | 98 | 50 | 100 | 63 | 100 | PUCCRT 3DC ([1]; rate 62.5 g ai/ha): 93; PUCCRT 7DP ([1]; rate 62.5 g ai/ha): 100; PUCCRT 3DC ([1]; rate 125 g ai/ha): 93; PUCCRT 7DP ([1]; rate 125 g ai/ha): 100
